Read-outs that look alike come from different tables or passages of the source.
Columns and labels:
[1] = Single agent maximum tolerated dose in mice
NCI-H69 = NCI-H69 small cell lung cancer xenograft model
Method: Procedure. […] Treatments began when tumors reached approximately 200 mm^3 following subcutaneous tumor implantation with NCI-H69 tumor fragments for all groups containing 10 female immunocompromised nu/nu mice per group. MLN8237 was tested at a dose of 20 mg/kg administered PO on a QIDx21-Q8Hx2 schedule and at doses of 20 and 10 mg/kg on a QIDx21 schedule. Paclitaxel was tested at doses of 30 and 15 mg/kg administered IV on a Q7Dx3 schedule. Each paclitaxel dose was combined with each MLN8237 dose on the QDx21 treatment schedule. In the combination treatment groups MLN8237 was administered first to the animals, followed immediately by the administration of paclitaxel. One group served as a vehicle-treated control group receiving PO treatment with the MLN8237 vehicle on a QIDx21 schedule.

NCI-H82 = NCI-H82 small cell lung cancer xenograft model
cells = cells treated with MLN8054; cited from earlier work
[2] = mouse, in vivo

Structure (SMILES): CC(=O)O[C@H]1C(=O)[C@@]2(C)[C@H]([C@H](OC(=O)c3ccccc3)[C@]3(O)C[C@H](OC(=O)[C@H](O)[C@@H](NC(=O)c4ccccc4)c4ccccc4)C(C)=C1C3(C)C)[C@]1(OC(C)=O)CO[C@@H]1C[C@@H]2O [paclitaxel]
- single agent maximum tolerated dose in mice [1]: 30 mg/kg QD
- antitumor activity (NCI-H69; single agent paclitaxel 30 mg/kg (maximum tolerated dose)): sustained cures
- antitumor activity (NCI-H82; single agent paclitaxel 15 mg/kg QW): no antitumor activity

Structure (SMILES): O=C(O)c1ccc(Nc2ncc3c(n2)-c2ccc(Cl)cc2C(c2c(F)cccc2F)=NC3)cc1 [MLN8054]
- cell fate after repeated defective mitotic divisions (cells): undergo senescence
- chromosome content of treated cells (cells): develop aneuploidy that increases over time

Structure (SMILES): COc1cc(Nc2ncc3c(n2)-c2ccc(Cl)cc2C(c2c(F)cccc2OC)=NC3)ccc1C(=O)[O-].O.[Na+] [alisertib, sodium 4-{[9-chloro-7-(2-fluoro-6-methoxyphenyl)-5H-pyrimido[5,4-d][2]benzazepin-2-yl]amino}-2-methoxybenzoate monohydrate]
- single agent maximum tolerated dose in mice [2]: 20 mg/kg BID
- antitumor activity (NCI-H69; single agent alisertib 20 mg/kg BID (maximum tolerated dose)): prolonged regressions
- antitumor activity (NCI-H82; single agent alisertib 10 mg/kg QD): no antitumor activity

Structure (SMILES): CC[C@@]1(O)C(=O)OCc2c1cc1n(c2=O)Cc2cc3c(CN(C)C)c(O)ccc3nc2-1 [topotecan]
- single agent maximum tolerated dose ([1]; IV): 1.5 mg/kg Q5D

— US10213436B2, “Methods of treating cancer using aurora kinase inhibitors” (Millennium Pharmaceuticals, Inc., priority 2012, dated 2019)
